Assay results reported in publication PMC8622706, “Synthesis, Molecular Docking, and Antimalarial Activity of Hybrid 4-Aminoquinoline-pyrano[2,3-c]pyrazole Derivatives” (Pharmaceuticals, 2021).
Like-named read-outs stand apart in the source and are kept apart here.

Key:
[1] = test system: P. falciparum 3D7 (chloroquine-sensitive); assay: pLDH antimalarial assay, P. falciparum 3D7 culture; format: cell-based, Plasmodium falciparum; settings: for EC50: Plasmodium falciparum, read-out: P. falciparum 3D7 (CQ-Sensitive) EC50 ± S.D.; for Selectivity Index (SI), (CC50 MTT/EC50 pLDH), CQ-Sensitive: Vero CC50 / 3D7 EC50
Experimental: (§1) The parasites were cultivated by the Trager and Jensen methods to determine the antimalarial activity of the hybrid 4-aminoquinoline-pyrano[2,3-c]pyrazole derivatives against chloroquine-sensitive P. falciparum 3D7 and chloroquine-resistant P. falciparum K1. […] The parasites were maintained in continuous culture in fresh group O (Rhesus positive) human erythrocytes suspended in 2% hematocrit in RPMI 1640 containing […] Albumax I, glucose (3 g/L), hypoxanthine (45 μg/L), and gentamicin (50 μg/L). Plasmodium lactate dehydrogenase (pLDH) assays were performed as described by Makler et al., with slight modification. Parasites were plated in asynchronized phase at 2% hematocrit and 2% parasitemia in 100 μL of the test compounds. The compounds were dissolved in DMSO and further diluted in a culture medium. Chloroquine diphosphate and artemisinin were used as antimalarial reference drugs. Unparasitized erythrocytes without the test compounds were the blanks, while parasitized erythrocytes without test compounds were the control for the assay. Plates were placed in an incubator supplied with 5% CO2 and incubated at 37 °C for 48 h. After incubation, plates were subjected to three 30 min of freeze-thaw cycles to lyse and re-suspend the erythrocytes in the culture. Subsequently, Malstat reagent (100 μL) and a nitro blue tetrazolium salt/phenazine ethosulfate (NBT/PES) solution (25 μL) were added to each well of a new 96-well microtiter plate. The culture (25 μL) was then added to the corresponding well of the reagent plate to initiate the lactate dehydrogenase reaction. Color development of the plate was monitored calorimetrically at 650 nm after an hour of incubation in the dark.

MTT cytotoxicity assay = format: cell-based; settings: African green monkey, Vero cells (ATCC CCL-81), read-out: Vero Cell (Normal Cell) CC50 ± S.D.
Experimental: The cytotoxicity of the hybrid 4-aminoquinoline-pyrano[2,3-c]pyrazole derivatives was measured using the MTT assay described by Mossmann. […] The cell suspension without test compounds served as the positive control for cell growth. […] The medium was then aspirated, and formazan crystals were solubilized by adding 100 μL of DMSO per well for 10 min at 37 °C in a CO2 incubator. […] Three independent tests were conducted to determine the cytotoxicity of each test compound.

[2] = test system: P. falciparum K1 (chloroquine-resistant); assay: pLDH antimalarial assay, P. falciparum K1 culture; format: cell-based, Plasmodium falciparum; settings: for Resistance Index (RI), (EC50 Resistance/EC50 Sensitive): K1/3D7; for EC50: Plasmodium falciparum, read-out: P. falciparum K1 (CQ-Resistant) EC50 ± S.D.; for Selectivity Index (SI), (CC50 MTT/EC50 pLDH), CQ-Resistant: Vero CC50 / K1 EC50
Experimental: as §1

P. berghei = test system: P. berghei; parameters: method as in PMID 30737133; settings: P. berghei-infected mice, 5th day after infection; cited from earlier work
P. falciparum = test system: P. falciparum; parameters: method as in doi:10.1039/C6RA01349J; settings: comparator value; read-out: antiplasmodial activity against P. falciparum; cited from earlier work
[3] = 3D7, chloroquine-sensitive strain, pLDH assay, 48 h
[4] = K1, chloroquine-resistant strain, pLDH assay, 48 h

Row | SMILES | EC50 [1, 3] | Selectivity Index (SI), (CC50 MTT/EC50 pLDH), CQ-Sensitive [1] | CC50 at 48 h (MTT cytotoxicity assay) | Resistance Index (RI), (EC50 Resistance/EC50 Sensitive) [2] | EC50 [2, 4] | Selectivity Index (SI), (CC50 MTT/EC50 pLDH), CQ-Resistant [2] | EC50 ([1]; 3D7, 48 h) | EC50 ([2]; K1, 48 h) | Antimalarial activity class against K1 ([2]; class by EC50 threshold) | Antimalarial activity class against 3D7 ([1]; class by EC50 threshold) | reduction of parasitemia (P. berghei) | IC50 (P. falciparum)
1 | Nc1ccnc2ccccc12 [4-aminoquinoline] | 9290 ± 120 nM | 12.25 | 114000 ± 1630 nM | 15.11 | 140000 ± 27600 nM | 0.81 |  |  |  |  |  | 
2 | C[C@@H]1CC[C@H]2[C@@H](C)C(=O)O[C@@H]3O[C@@]4(C)CC[C@@H]1[C@]32OO4 [ART, artemisinin, reference compound] | 0.1 nM | >2000 |  | 1.7 | 0.17 nM | >2000 |  |  |  |  |  | 
3 | CCN(CC)CCCC(C)Nc1ccnc2cc(Cl)ccc12 (stereo not drawn) [CQ, chloroquine, reference compound] |  |  |  |  |  |  | 2 nM | 330 nM |  |  |  | 
4 | CCOC(=O)c1nn(CCNc2ccnc3cc(Cl)ccc23)c2c1C(c1ccccc1)C(C#N)=C(N)O2 (stereo not drawn) [Compound 4a, Ethyl 6-Amino-1-(2-((7-chloroquinolin-4-yl)amino)ethyl)-5-cyano-4-phenyl-1,4-dihydropyrano[2,3-c]pyrazole-3-carboxylate] | 190 ± 70 nM | 539.7 |  | 1.32 | 250 ± 30 nM | 410.16 |  |  |  |  |  | 
5 | CCOC(=O)c1nn(CCNc2ccnc3cc(Cl)ccc23)c2c1C(c1ccc(CC)cc1)C(C#N)=C(N)O2 (stereo not drawn) [Compound 4b, Ethyl 6-Amino-1-(2-((7-chloroquinolin-4-yl)amino)ethyl)-5-cyano-4-(4-ethylphenyl)-1,4-dihydropyrano[2,3-c]pyrazole-3-carboxylate] | 13 ± 0.2 nM | 1353.9 |  | 1.53 | 20 ± 10 nM | 880 |  |  |  |  |  | 
6 | CCOC(=O)c1nn(CCNc2ccnc3cc(Cl)ccc23)c2c1C(c1ccco1)C(C#N)=C(N)O2 (stereo not drawn) [Compound 4c, Ethyl 6-Amino-1-(2-((7-chloroquinolyn-4-yl)amino)ethyl)-5-cyano-4-(furan-2-yl)-1,4-dihydropyrano[2,3-c]pyrazole-3-carboxylate] | 113 ± 2 nM | 747.9 |  | 14.24 | 1610 ± 150 nM | 52.49 |  |  | active |  |  | 
7 | CCOC(=O)c1nn(CCNc2ccnc3cc(Cl)ccc23)c2c1C(C(C)C)C(C#N)=C(N)O2 (stereo not drawn) [Compound 4d, Ethyl 6-Amino-1-(2-((7-chloroquinolyn-4-yl)amino)ethyl)-5-cyano-4-isopropyl-1,4-dihydropyrano[2,3-c]pyrazole-3-carboxylate] | 3390 ± 1890 nM | 25.4 |  | 0.09 | 300 ± 10 nM | 287 |  |  |  | active |  | 
8 | CCOC(=O)c1nn(CCNc2ccnc3cc(Cl)ccc23)c2c1C(c1ccc(O)cc1)C(C#N)=C(N)O2 (stereo not drawn) [Compound 4e, Ethyl 6-Amino-1-(2-((7-chloroquinolyn-4-yl)amino)ethyl)-5-cyano-4-(4-hydroxyphenyl)-1,4-dihydropyrano[2,3-c]pyrazole-3-carboxylate] | 26 ± 9 nM | 355.3 |  | 273.84 | 7120 ± 3720 nM | 1.3 |  |  |  |  |  | 
9 | Cc1nnc(Nc2cc(C(F)(F)F)nc3c(C(F)(F)F)cccc23)[nH]1 [VIII, N-(5-methyl-4H-1,2,4-triazol-3-yl)-2,8-bis(trifluoromethyl)quinolin-4-amine] |  |  |  |  |  |  |  |  |  |  | 66% | 
10 | C=C[C@H]1C[N@@]2CC[C@H]1C[C@H]2[C@H](O)c1ccnc2ccc(OC)cc12 [quinine] |  |  |  |  |  |  |  |  |  |  |  | 826 nM
